Test results published in patent US6180599A, “Pharmaceutical composition, containing medium-chain fatty acids as active ingredients, for dental caries and periodontal disease” (priority 1997, dated 2001).

Columns and labels:
S. mutans 10449 = assay: Inhibitory effect on extracellular polysaccharide synthesis, standard strain; assay type: cell-based, Streptococcus mutans; details: 1 mM
Experimental: (§1) In order to identify the effect by which medium-chain fatty acids inhibit plaque matrix formation, inhibitory effect and concentration of extracellular polysaccharide synthesis were determined in seven kinds of standard cariogenic plaque bacteria. Also, the inhibitory effect of extracellular polysaccharide synthesis for 20 kinds of cariogenic plaque bacteria, separated from the human oral cavity, was measured. Liquid culture media used were: Todd-Hewitt broth of Streptococcus, Lactobacilli MRS broth of Lactobacillus and Brain Heart Infusion broth of Actinomyces. 0.1 ml of bacterial (or cell) suspension (OD600 =0.5) of each bacteria was inoculated to 5.9 ml of culture media containing 1 mM of medium-chain fatty acids and 2% of glucose, and was cultured for 24^~ 48 hours in 10% CO2 incubator. After culturing, the resultant was centrifuged to precipitate at 5,000×g for 15 minutes, then soluble extracellular polysaccharide was separated and purified from the supernatant and insoluble extracellular polysaccharide from the cell pellet, and then these were quantified.

S. mutans BHT = assay: as above; assay type: cell-based, Streptococcus mutans; details: 1 mM
Experimental: as §1

S. mutans JC-2 = assay: as above; assay type: cell-based, Streptococcus mutans; details: 1 mM
Experimental: as §1

L. casei ATCC 27216 = assay: as above; assay type: cell-based, Lactobacillus casei; details: 1 mM
Experimental: as §1

L. casei ATCC 4646 = assay: as above; assay type: cell-based, Lactobacillus casei; details: 1 mM
Experimental: as §1

A. viscosus ATCC 15987 = assay: as above; assay type: cell-based; details: 1 mM
Experimental: as §1

S. sanguis 10556 = assay: as above; assay type: cell-based; details: 1 mM
Experimental: as §1

[1] = Extracellular polysaccharide in liquid medium with fatty acid, no bacteria
Experimental: as §1

[2] = system: cariogenic plaque bacteria; assay: Inhibitory effect on extracellular polysaccharide synthesis (summary); assay type: cell-based, Streptococcus, Lactobacillus and Actinomyces; details: 1 mM
Experimental: as §1, with “quantified. So the experimental results that represent inhibitory effect of medium-chain fatty acids upon extracellular polysaccharide synthesis, are shown in table 1, 2, 3 and 4.” for “quantified.”

[3] = system: cariogenic plaque bacteria (standard strains); assay: Inhibitory effect of acid production, standard strains; assay type: cell-based, Streptococcus, Lactobacillus and Actinomyces; details: for inhibitory effect of acid production (in words): 0.5-8 mM, pH 5.0 and 7.0, 24-48 hours
Experimental: In order to identify the action by which medium-chain fatty acids inhibit acid production, the inhibitory effect and concentration of acid production were determined in seven kinds of standard cariogenic plaque bacteria. Also, the inhibitory effect of acid production for 20 kinds of cariogenic plaque bacteria, separated from the human oral cavity, was assayed. Liquid culture media used were: Todd-Hewitt broth of Streptococcus, Lactobacilli MRS broth of Lactobacillus and Brain Heart Infusion broth of Actinomyces. […] The final pH of the culture medium was measured after culturing for 24^~ 48 hours in 10% CO2 incubator.

[4] = system: cariogenic plaque bacteria (standard strains); assay: Inhibitory effect of bacterial growth, standard strains; assay type: cell-based, Streptococcus, Lactobacillus and Actinomyces
Experimental: (§2) In order to evaluate how medium-chain fatty acids influence bacterial growth of cariogenic plaque bacteria, the influence on each bacteria was evaluated after selecting seven kinds of bacterial strains as standard bacteria among cariogenic plaque bacteria. […] The results that medium-chain fatty acids have on influencing bacterial growth of cariogenic plaque bacteria is shown in FIG. 3. And the result of measuring inhibitory effect of bacterial growth of 20 kinds of cariogenic plaque bacteria separated from the human oral cavities is shown in FIG. 4.

[5] = system: cariogenic plaque bacteria separated from human oral cavities; assay: Inhibitory effect of bacterial growth, bacteria separated from human oral cavities; assay type: cell-based; details: 1 mM lauric acid as salt form; neutral and acidic pH; FIG. 4
Experimental: as §2

CCCCCCCCCCCC(=O)[O-].[Na+] [C12, sodium laurate]
Extracellular polysaccharide, insoluble (S. mutans 10449; 2% glucose, 24-48 hours, control 0.8 ± 0.3): 0.2 ± 0.1 µg/mL
Extracellular polysaccharide, soluble (S. mutans 10449; 2% glucose, 24-48 hours, control 74.6 ± 1.8): 15.5 ± 3.8 µg/mL
Inhibitory rate, soluble (S. mutans 10449; vs control): 79%
Extracellular polysaccharide, soluble (S. mutans BHT; 2% glucose, 24-48 hours, control 31.5 ± 3.7): 4.1 ± 0.8 µg/mL
Inhibitory rate, soluble (S. mutans BHT; vs control): 87%
Extracellular polysaccharide, insoluble (S. mutans JC-2; 2% glucose, 24-48 hours, control 1.1 ± 0.2): 0.1 ± 0.1 µg/mL
Extracellular polysaccharide, soluble (S. mutans JC-2; 2% glucose, 24-48 hours, control 34.4 ± 3.9): 0.6 ± 0.5 µg/mL
Inhibitory rate, soluble (S. mutans JC-2; vs control): 98%
Extracellular polysaccharide, insoluble (L. casei ATCC 27216; 2% glucose, 24-48 hours, control 5.9 ± 0.4): 2.0 ± 0.1 µg/mL
Extracellular polysaccharide, soluble (L. casei ATCC 27216; 2% glucose, 24-48 hours, control 67.3 ± 4.5): 19.0 ± 2.1 µg/mL
Inhibitory rate, soluble (L. casei ATCC 27216; vs control): 72%
Extracellular polysaccharide, insoluble (L. casei ATCC 4646; 2% glucose, 24-48 hours, control 5.3 ± 0.5): 0.2 ± 0.2 µg/mL
Extracellular polysaccharide, soluble (L. casei ATCC 4646; 2% glucose, 24-48 hours, control 43.6 ± 7.0): 19.2 ± 2.9 µg/mL
Inhibitory rate, soluble (L. casei ATCC 4646; vs control): 56%
Extracellular polysaccharide, insoluble (A. viscosus ATCC 15987; 2% glucose, 24-48 hours, control 2.1 ± 0.2): 0.2 ± 0.1 µg/mL
Extracellular polysaccharide, soluble (A. viscosus ATCC 15987; 2% glucose, 24-48 hours, control 222.8 ± 3.3): 25.3 ± 1.7 µg/mL
Inhibitory rate, soluble (A. viscosus ATCC 15987; vs control): 89%
Extracellular polysaccharide, soluble (S. sanguis 10556; 2% glucose, 24-48 hours, control 25.9 ± 4.3): 12.2 ± 0.9 µg/mL
Inhibitory rate, soluble (S. sanguis 10556; vs control): 53%
Extracellular polysaccharide, soluble ([1]; Table 1, 1 mM): 1.4 ± 0.1 µg/mL
Extracellular polysaccharide, soluble ([1]; Table 2, 1 mM): 4.6 ± 1.3 µg/mL
Extracellular polysaccharide, soluble ([1]; Table 3, 1 mM): 4.4 ± 0.2 µg/mL
inhibitory effect of extracellular polysaccharide synthesis (in words) [2]: inhibited in the highest degree
inhibitory effect of extracellular polysaccharide synthesis, sequence ([2]; ranking): sodium laurate>sodium capriate>sodium nonanoate
inhibitory effect of acid production (in words) [3]: excellent inhibitory effect of acid production even at low concentration of 1 mM
inhibitory effect of acid production (in words) ([3]; listed as salt form of lauric acid): almost completely inhibits the acid production ability
inhibitory effect of acid production in acidic conditions (in words) ([3]; acidic conditions, FIG. 1): significant effect of acid production in acidic conditions
inhibitory effect of acid production, sequence ([3]; ranking, FIG. 1): sodium laurate>sodium capriate>sodium nonanoate
inhibitory effect of bacterial growth (in words) ([4]; 0.5-8 mM, pH 5.0 and 7.0, OD 600 nm, 24-48 hours): almost completely inhibits
inhibitory effect of bacterial growth, sequence ([4]; ranking, FIG. 3): sodium laurate>sodium capriate>sodium nonanoate
inhibition of bacterial growth (in words) [5]: more remarkable effects even at low concentration than that of the control group
